Reference: publication PMC4506562 (Chemmedchem, 2014)

Molecular target: T1, hsolAC (human soluble adenylate cyclase) (Homo sapiens, UniProt Q96PN6)
T1 sequence (Q96PN6 1-469): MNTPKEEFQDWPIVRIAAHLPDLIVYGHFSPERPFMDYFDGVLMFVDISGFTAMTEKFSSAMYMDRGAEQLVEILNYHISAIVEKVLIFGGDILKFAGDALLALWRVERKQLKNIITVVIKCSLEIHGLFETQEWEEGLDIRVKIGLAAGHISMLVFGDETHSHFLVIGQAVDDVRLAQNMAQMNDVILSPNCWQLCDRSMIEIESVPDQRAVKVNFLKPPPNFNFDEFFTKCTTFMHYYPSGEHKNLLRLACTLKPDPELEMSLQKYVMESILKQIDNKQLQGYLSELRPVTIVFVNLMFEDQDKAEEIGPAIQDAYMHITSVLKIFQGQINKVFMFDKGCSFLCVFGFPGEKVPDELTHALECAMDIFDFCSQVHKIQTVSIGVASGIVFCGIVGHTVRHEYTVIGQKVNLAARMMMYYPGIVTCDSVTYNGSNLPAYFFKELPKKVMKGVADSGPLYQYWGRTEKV
Assay: Bridge-It cAMP fluorescence assay
Format: biochemical

IC50: > 1000 µM
Compound: Cc1n[nH]cc1-c1ccc(F)cc1 [compound 1, 4-(4-Fluorophenyl)-3-methyl-1H-pyrazole]
